# Measured values as given in PubChem BioAssay (NCI).
#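 The compound was tested at five concentrations on cells cultured in 96-well plates, with a 48-hour exposure period. TGI is the concentration that stops growth completely.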
# How the values were obtained:
# Experiment in all cases: NCI tumour cell line growth inhibition, 48 h
# 786-0 renal = test system: 786-0 renal
# CCRF-CEM leukemia = test system: CCRF-CEM leukemia
# MALME-3M melanoma = test system: MALME-3M melanoma
# NCI/ADR-RES ovarian = test system: NCI/ADR-RES ovarian
# OVCAR-8 ovarian = test system: OVCAR-8 ovarian
# T-47D breast = test system: T-47D breast
Compound,TGI (786-0 renal),TGI (CCRF-CEM leukemia),TGI (MALME-3M melanoma),TGI (NCI/ADR-RES ovarian),TGI (OVCAR-8 ovarian),TGI (T-47D breast)
Cn1c2ccccc2c2c(-c3ccccc3)cc3c(c21)C(=O)C=CC3=O,2.99 µM,0.538 µM,4.17 µM,> 9.15 µM,5.12 µM,4.9 µM
O=C(NC1=NCC(CN2CCN(c3ccccc3)CC2)O1)Nc1ccccc1 (centres undefined),> 100 µM,> 100 µM,> 100 µM,> 100 µM,,> 100 µM
NC(N)=N/N=C/c1c(-c2ccc(Cl)cc2)nc2sccn12,2.99 µM,4.23 µM,4.95 µM,23.3 µM,,3.22 µM
N#Cc1c(N)nc(-c2ccc(Cl)cc2)c2c1-c1ccccc1S(=O)(=O)CC2,> 100 µM,,> 100 µM,> 100 µM,> 100 µM,> 100 µM
CCOC(=O)c1cccn1S(=O)(=O)c1cc(Cl)ccc1NC(=O)CC,> 100 µM,> 100 µM,,,,> 100 µM
O=c1oc2ccc3ccccc3c2cc1-c1cn2ccccc2n1,> 100 µM,> 100 µM,,> 100 µM,> 100 µM,> 100 µM
CCSc1[nH]c(NC(=S)NC(=O)c2ccccc2Cl)c(C(N)=O)c1C(N)=O,> 10 µM,> 10 µM,> 10 µM,,> 10 µM,> 10 µM
Cc1ccc(S(=O)(=O)n2cc(-c3cc(C(F)(F)F)ccn3)c3cc(Br)ccc32)cc1,36.3 µM,> 100 µM,52.7 µM,> 100 µM,,18.9 µM
CC(C)OC(=O)c1ccc(NCc2cc(O)ccc2O)cc1Cl,10.8 µM,,,> 100 µM,> 70.1 µM,
CS(=O)(=O)c1nc(-c2cc3c(c(S(C)(=O)=O)n2)CCC3)cc2c1CCCCC2,> 100 µM,> 100 µM,99.6 µM,> 100 µM,> 100 µM,
O=C1/C(=C\c2ccc(O)cc2)CCC/C1=C/c1ccc(Cl)c(Cl)c1,6.05 µM,1.2 µM,17.5 µM,4.27 µM,,33.3 µM
O=C1/C(=C/c2ccccc2O)N=C(c2ccccc2)N1C1Nc2cc3c(cc2S1)NC(N1C(=O)/C(=C/c2ccccc2O)N=C1c1ccccc1)S3 (centres undefined),> 100 µM,> 100 µM,,> 100 µM,> 100 µM,> 100 µM
O=C1/C(=C/c2cccc(Br)c2)CCc2ccccc21,29.8 µM,13.4 µM,26 µM,33.2 µM,36.1 µM,
O=C1NC2ON=C(c3ccccc3)C2C2ON=C(c3ccccc3)N12 (centres undefined),> 100 µM,,> 100 µM,> 100 µM,> 100 µM,
CCOP(=O)(OCC)/C(C#N)=C/c1ncc[nH]1,> 100 µM,> 100 µM,> 100 µM,> 100 µM,> 100 µM,
O=C1CCCCC/C1=C\c1cccc(Cl)c1,> 100 µM,30.4 µM,> 100 µM,,,> 100 µM
CN(C)Nc1cc(=O)[nH]c(=O)[nH]1,> 100 µM,> 100 µM,> 100 µM,> 100 µM,> 100 µM,
COc1ccc2[nH]cc(CCNC(=O)[C@H](Cc3ccccc3)NC(=O)[C@@H](NCC(F)(F)F)C(C)C)c2c1,35.1 µM,7.89 µM,51.9 µM,41 µM,54.4 µM,
CCc1c2c([nH]c(=S)c1C#N)CCC2,> 100 µM,> 100 µM,> 100 µM,> 100 µM,> 100 µM,
O=[N+]([O-])/C(C(Cl)=C(Cl)Cl)=C(\N1CCOCC1)n1nnc2ccccc21,44.8 µM,,35.1 µM,65.1 µM,,56.8 µM
C1=NCCN2CCN(CCN=Cc3ccc(cc3)OCc3cccc(n3)COc3ccc1cc3)CC2,> 50 µM,> 50 µM,> 50 µM,> 50 µM,> 50 µM,
Cn1c(=O)c(Br)c(C=O)n(CCO[N+](=O)[O-])c1=O,17.3 µM,5.25 µM,,4.31 µM,7.79 µM,14.6 µM
COc1cc(O)c2c(=O)cc(-c3ccc(O)cc3O)oc2c1CC=C(C)C,> 100 µM,63 µM,33 µM,> 100 µM,35.3 µM,
C=CCNC1=C2C[C@@H](C)C[C@@H](OC)[C@H](OC(=O)CCN)[C@H](C)/C=C(\C)[C@@H](OC(N)=O)[C@H](OC)/C=C\C=C(/C)C(=O)NC(=CC1=O)C2=O,17 µM,,14.1 µM,> 100 µM,18.4 µM,15.5 µM
Cc1csc2c(=O)n(C3OC(CO)C(O)C3O)c(=O)[nH]c12 (centres undefined),> 100 µM,> 100 µM,> 100 µM,> 100 µM,> 100 µM,
CC[C@]1(Cc2ccc(OC)c(OC)c2)C=[N+]([O-])O[C@H](OC2CCCC2(c2ccccc2)c2ccccc2)[C@@H]1OC(=O)c1ccccc1 (some centres undefined),> 100 µM,> 30.1 µM,,> 62.7 µM,> 100 µM,> 27.2 µM
O=C1/C(=C/c2cccc(F)c2)CCCc2ccccc21,30.9 µM,34 µM,23.8 µM,33.1 µM,29.3 µM,
